pIC50: −log10 of the molar value. Like-named read-outs stand apart in the source and are kept apart here.

The target in one test is BRD4-BD1 (Homo sapiens (Human), UniProt O60885). Nature of the test: AlphaLisa bromodomain binding assay, BRD4-BD1. From the text: An AlphaLisa assay was used to observe bromodomain binding and measure IC50s for the compounds disclosed herein. An AlphaLisa assay is a bead-based assay used to detect interactions between bromodomains and polyacetylated histone peptides. Donor and acceptor beads bound to target and ligand are brought into proximity by this protein-protein interaction.
Equipment Required • 1. […] Plate centrifuge • 3. Plate shaker • 4. […] Single channel and multi-channel pipettes • 6. Microplate reader (Pherastar)
Stock and Final Assay Concentrations (FAC) • 1. All reference and test compounds are made at a concentration of 10 mM in DMSO. Compounds are serially diluted in DMSO and a FAC starting from 10 μM to 10 point 3 fold serial dilutions is arrived. FAC of DMSO is 1%. • 2. Enzyme stock and FAC
Biotinylated substrate (Acetylated histone H4, biotinylated substrate—cat no. AS64989-025, Anaspec) stock and FAC
• 4. Acceptor and donor beads stock and FAC
Buffers • For the enzyme and substrate dilution following buffer is used (for 50 ml) • HEPES: 50 mM 2.5 ml • NaCl: 25 mM 1.25 ml • DTT: 10 mM 0.05 ml • BSA: 0.1% 0.05 g • MilliQ water: 45.7 ml • For dilution of acceptor and donor beads AlphaLISA 5× epigenetics Buffer Perkin Elmer (Cat: AL008C) is used at 1× concentration.
Procedure • 1. […] Tap the plate gently • 3. […] Cover with plate sealer • 5. […] Incubate the plate at room temperature for 10 minutes • 7. Add 10 μl of the substrate • 8. Cover with plate sealer • 9. […] Cover with plate sealer • 14. […] Cover with plate sealer • 18.
(§1) The percent inhibition is calculated in the excel analysis template and the IC50 values are subsequently determined using a sigmoidal dose-response curve (variable slope) using GraphPad Prism® 5 software.
A general note: In Alpha technology, singlet oxygen from a donor bead excites a nearby acceptor bead.

Another test addresses JAK2 (Homo sapiens (Human), UniProt O60674). Nature of the test: HTRF kinase assay, JAK2. It is filed as biochemical.
From the text: A kinase assay with HTRF was used to observe JAK activity and calculate the IC50s of compounds disclosed herein. HTRF is an enzymatic assay used to determine the amount of phosphorylated peptide. FRET (Fluorescence Resonance Energy Transfer) is based on the transfer of energy between two fluorophores—a donor and an acceptor—when in close proximity. Molecular interactions between biomolecules can be assessed by coupling each partner with a fluorescent label and by detecting the level of energy transfer. The amount of phopshorylated peptide can be detected using a combination of a Eu 3+Cryptate labeled anti-phospho residue antibody, SA-XL665 and a biotinylated substrate. The signal is proportional to the concentration of phospho-residues.
Equipment Required • 1. […] Plate centrifuge • 3. Plate shaker • 4. […] Single channel and multi-channel pipettes • 6. Microplate reader (Pherastar)]
Stock and Final Assay Concentrations (FAC) • 1. All reference and test compounds are made at a concentration of 10 mM in DMSO. Compounds are serially diluted in DMSO and a FAC starting from 10 μM to 10 point 3 fold serial dilutions is arrived. For Ruxolitinib the starting FAC is 1 μM. FAC of DMSO is 1%. • 2. Enzyme stock and FAC
• JAK-1: Invtirogen Cat: PR8767C • JAK-2: Invtirogen Cat: PR7820B • JAK-3: Invtirogen Cat: PR7507B • 3. Substrate (synthetic peptide-Biotinylated-N-terminal tag-[…] from Biopeptide) stock and FAC
• Adenosine 5′-triphosphate disodium salt hydrate: Sigma Cat: A26209 • 5. […] Buffers • Base buffer (for 50 ml)
• HTRF buffer: • 50 mM Tris-HCl, pH—7.5 • 100 mM NaCl • 0.1% BSA • 0.05% Tween20 • 0.5 mM EDTA
To a 384 well black-plate: • 1. Add 17 μL of the buffer to each well of the 384-well black plate • 2. […] Add 5 μl of the enzyme to each well of the plate • 4. Add 10 μl of the substrate and ATP mix to all the wells • 5. Cover with plate sealer • 6. […] Incubate at room temperature for 1 hour on shaker • 8. […] Add 37.5 μL of the HTRF mix to these wells. • 9. Incubate the plate at room temperature on shaker for 45 minutes. • 10.
as §1
For orientation: In TR-FRET formats the signal depends on donor and acceptor labels being close together.

The mark [1] stands for this setting: Table 6, read-out: BRD4(1) IC50.

JAK2, sequence (O60674 whole entry): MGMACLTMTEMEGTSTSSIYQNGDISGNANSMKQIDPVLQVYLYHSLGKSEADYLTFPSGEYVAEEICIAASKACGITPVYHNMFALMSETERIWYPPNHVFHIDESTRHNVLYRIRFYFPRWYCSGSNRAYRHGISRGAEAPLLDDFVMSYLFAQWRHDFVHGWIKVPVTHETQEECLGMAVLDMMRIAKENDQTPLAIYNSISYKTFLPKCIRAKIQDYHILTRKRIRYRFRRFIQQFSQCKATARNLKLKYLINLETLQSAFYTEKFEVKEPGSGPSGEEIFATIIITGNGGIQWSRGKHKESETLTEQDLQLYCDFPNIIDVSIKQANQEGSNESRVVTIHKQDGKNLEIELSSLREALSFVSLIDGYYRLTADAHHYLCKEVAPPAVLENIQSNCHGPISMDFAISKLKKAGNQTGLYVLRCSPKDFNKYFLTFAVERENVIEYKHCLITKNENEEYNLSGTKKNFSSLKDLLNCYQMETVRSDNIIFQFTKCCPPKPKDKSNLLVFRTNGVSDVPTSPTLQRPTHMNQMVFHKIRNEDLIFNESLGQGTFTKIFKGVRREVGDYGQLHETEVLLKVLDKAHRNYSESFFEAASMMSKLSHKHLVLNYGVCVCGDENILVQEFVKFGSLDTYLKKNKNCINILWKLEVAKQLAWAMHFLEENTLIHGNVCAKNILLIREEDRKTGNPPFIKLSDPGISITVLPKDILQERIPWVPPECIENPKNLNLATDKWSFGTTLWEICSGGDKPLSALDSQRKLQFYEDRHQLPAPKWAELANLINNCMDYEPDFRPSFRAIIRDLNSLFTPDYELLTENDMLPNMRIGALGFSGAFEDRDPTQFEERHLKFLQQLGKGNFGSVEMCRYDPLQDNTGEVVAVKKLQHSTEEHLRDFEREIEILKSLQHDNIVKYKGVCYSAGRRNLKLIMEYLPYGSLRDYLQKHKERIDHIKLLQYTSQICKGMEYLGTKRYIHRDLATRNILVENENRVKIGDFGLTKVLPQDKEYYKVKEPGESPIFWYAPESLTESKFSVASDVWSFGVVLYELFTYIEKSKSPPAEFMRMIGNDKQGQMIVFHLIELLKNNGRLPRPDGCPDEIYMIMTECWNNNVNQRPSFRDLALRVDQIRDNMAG

For the compound `CN(c1cccc(Nc2nc(NC3CCNCC3)nc3sccc23)c1)S(=O)(=O)C(C)(C)C`, the figures for the pIC50 at BRD4-BD1 (setting [1]) and on JAK2 (Table 6) were 6.06 and 5.00, respectively.
As for `CN(C)C1CCN(c2ccc(Nc3ncc4ccn(-c5cccc(NS(=O)(=O)C(C)(C)C)c5)c4n3)cc2)CC1` [drawing 368], the pIC50 is 6.72 on BRD4-BD1 (setting [1]) and 8.30 on JAK2 (Table 6).
With `CNc1nc(NC2CCNCC2)nc2c1ccn2-c1cccc(NS(=O)(=O)C(C)(C)C)c1`, the figures for the pIC50 on BRD4-BD1 (setting [1]) and on JAK2 (Table 6) were 6.11 and 5.00, respectively.
On the same counts, the results for `CC(C)(C)S(=O)(=O)Nc1cccc(-n2ccc3cnc(Nc4cc(F)c5c(c4)CC4CNCCN54)nc32)c1` (stereo not shown) are 6.52 and 8.22.
With `Cc1cnc(Nc2ccc(N3CCN(C)CC3)cc2)nc1Nc1cccc(NS(=O)(=O)C(C)(C)C)c1` [drawing 258], the values for the negative-log IC50 (pIC50) on BRD4-BD1 (setting [1]) and on JAK2 (Table 6) were 6.59 and 8.00, respectively.
With `CNC1CCN(c2ccc(Nc3ncc4ccn(-c5cccc(NS(=O)(=O)C(C)(C)C)c5)c4n3)cc2)C1` (stereo not shown), the negative logarithm of the IC50 (pIC50) was 6.27 at BRD4-BD1 (setting [1]) and 7.77 at JAK2 (Table 6).
On to `Cc1ccc(-n2ccc3cnc(Nc4ccc(N5CCN(C)CC5)cc4)nc32)cc1NS(=O)(=O)C1CC1`, for which the negative logarithm of the IC50 (pIC50) is 5.51 on BRD4-BD1 (setting [1]) and 7.71 at JAK2 (Table 6).
In the same order, the values of `CC(C)(C)S(=O)(=O)Nc1cccc(Nc2nc(NC3CCN(C(N)=O)CC3)nc3sccc23)c1` are 5.52 and 5.00.
Consider `CN(C)C1CCN(c2ccc(Nc3ncc4ccn(-c5cccc(NS(=O)(=O)C(C)(C)C)c5)c4n3)cc2F)CC1` [drawing 76], for which the negative-log IC50 (pIC50) on BRD4-BD1 (Table 5, read-out: BRD4 IC50) is 6.88; on JAK2 (Table 5), 8.52.
Regarding `CN1CCN(c2ccc(Nc3ncc4ccn(-c5ccc(NS(=O)(=O)C(C)(C)C)cc5)c4n3)cc2)CC1` [drawing 362], the pIC50 on BRD4-BD1 (setting [1]) was 5.00; on JAK2 (Table 6) it was 9.15.
Regarding `NC(=O)N1CCN(c2ccc(Nc3ncc4ccn(-c5cccc(NS(=O)(=O)C6CC6)c5)c4n3)cc2)CC1`, the negative logarithm of the IC50 (pIC50) on BRD4-BD1 (setting [1]) is 5.00; at JAK2 (Table 6) it was 7.96.
In the same order, the values of `CC(C)(C)S(=O)(=O)Nc1cccc(Nc2nc(NC3CC4CC3CN4)nc3sccc23)c1` (stereo not shown) are 6.59 and 5.38.
On the same counts, the results for `CN1CCC(NC(=O)c2ccc(Nc3ncc4ccn(-c5cccc(NS(=O)(=O)C6CC6)c5)c4n3)cc2F)CC1` are 6.07 and 7.89.
On to `CC(C)(C)S(=O)(=O)Nc1cc(-c2csc3cnc(Nc4ccc(N5CCNCC5)c(F)c4)nc23)ccc1F`, for which the results for the pIC50 at BRD4-BD1 (setting [1]) and at JAK2 (Table 6) were 6.79 and 7.29, respectively.
In the same order, the values of `CN1CCN(c2ccc(Nc3ncc4ccn(-c5ccc6c(c5)CCN6S(=O)(=O)C(C)(C)C)c4n3)cc2)CC1` [drawing 398] are 5.00 and 9.22.
On the same counts, the results for `CCC1(S(=O)(=O)Nc2cccc(-n3ccc4cnc(Nc5ccc(N6CCC(N(C)C)CC6)c(F)c5)nc43)c2)CC1` are 5.82 and 8.30.
On to `CN1CCN(c2ccc(Nc3ncc4ccn(-c5cccc(NS(=O)(=O)C6CC6)c5)c4n3)cc2)CC1` [drawing 74], for which the negative-log IC50 (pIC50) is 6.45 on BRD4-BD1 (Table 5, read-out: BRD4 IC50) and 8.60 at JAK2 (Table 5).
Take `CN(C)C1CCN(c2ccc(Nc3ncc4ccn(-c5ccc(F)c(NS(=O)(=O)C6(C)CC6)c5)c4n3)cc2F)CC1`: the pIC50 on BRD4-BD1 (setting [1]) was 6.61; on JAK2 (Table 6) it was 7.70.
In the same order, the values of `Cc1cnc(Nc2ccc(N3CCN(C)CC3)cc2)nc1Nc1cccc(NS(=O)(=O)C(C)(C)C)c1` [drawing 292] are 6.55 and 8.05.
In the same order, the values of `CC(C)(C)S(=O)(=O)N1CCc2ccc(-n3ccc4cnc(Nc5ccc(N6CCNCC6)cc5)nc43)cc21` are 5.71 and 7.40.
On the same counts, the results for `CC1CNCCC1Nc1nc(Nc2cccc(NS(=O)(=O)C(C)(C)C)c2)c2ccsc2n1` (stereo not shown) are 5.70 and 5.00.
As to `CNC(=O)N1CCN(c2ccc(Nc3ncc4ccn(-c5cccc(NS(=O)(=O)C(C)(C)C)c5)c4n3)cc2)CC1`, the pIC50 at BRD4-BD1 (setting [1]) was 5.49; on JAK2 (Table 6) it was 7.72.
On the same counts, the results for `CC(C)(C)S(=O)(=O)Nc1cc(-n2ccc3cnc(Nc4ccc(N5CCC(C(=O)O)CC5)c(F)c4)nc32)ccc1F` are 5.96 and 6.92.
Consider `COc1nc(NC2CCNCC2)nc2c1ccn2-c1cccc(NS(=O)(=O)C(C)(C)C)c1`, for which the pIC50 at BRD4-BD1 (setting [1]) was 6.91; on JAK2 (Table 6), 5.52.
In the same order, the values of `CNC1CCN(c2ccc(Nc3ncc4ccn(-c5cccc(NS(=O)(=O)C(C)(C)C)c5)c4n3)cc2F)CC1` are 6.45 and 8.22.
With `Cc1cnc(Nc2ccc(N3CCN(C)CC3)cc2)nc1Nc1cccc(NS(=O)(=O)C(C)(C)C)c1` [drawing 226], the negative-log IC50 (pIC50) on BRD4-BD1 (setting [1]) is 6.66; at JAK2 (Table 6), 8.15.
In the same order, the values of `CN1CCN(C(=O)Cc2ccc(Nc3ncc4ccn(-c5cccc(NS(=O)(=O)C6CC6)c5)c4n3)cc2)CC1` are 5.40 and 6.74.
On the same counts, the results for `CN1CCCc2cc(Nc3ncc4ccn(-c5cccc(NS(=O)(=O)C(C)(C)C)c5)c4n3)ccc21` are 6.10 and 7.15.
In the same order, the values of `CNCCNC(=O)Cc1ccc(Nc2ncc3ccn(-c4ccc(F)c(NS(=O)(=O)C(C)(C)C)c4)c3n2)cc1` are 6.71 and 6.44.
Consider `CN(C)C1CCN(c2ccc(Nc3ncc4ccn(-c5ccc(F)c(NS(=O)(=O)C6CC6)c5)c4n3)cc2)CC1`, for which the negative-log IC50 (pIC50) is 6.00 on BRD4-BD1 (setting [1]) and 8.00 on JAK2 (Table 6).
As for `Cc1cnc(Nc2ccc(N3CCN(C)CC3)cc2)nc1Nc1cccc(NS(=O)(=O)C(C)(C)C)c1` [drawing 231], the pIC50 at BRD4-BD1 (setting [1]) is 6.88; at JAK2 (Table 6) it was 8.10.
In the same order, the values of `CC(C)(C)S(=O)(=O)Nc1cccc(Nc2nc(NC3CCNCC3)nc3sccc23)c1` [drawing 267] are 6.23 and 5.00.
With `CN1CCN(c2cccc(Nc3ncc4ccn(-c5cccc(NS(=O)(=O)C(C)(C)C)c5)c4n3)c2)CC1`, the values for the pIC50 on BRD4-BD1 (setting [1]) and on JAK2 (Table 6) were 5.77 and 7.13, respectively.
As to `CN(C)C1CCN(c2ccc(Nc3ncc4ccn(-c5cccc(NS(=O)(=O)C6CC6)c5)c4n3)cc2)CC1`, the negative logarithm of the IC50 (pIC50) on BRD4-BD1 (setting [1]) was 6.06; on JAK2 (Table 6) it was 7.85.
Consider `CC(C)(C)S(=O)(=O)Nc1cccc(Nc2nc(NC3CCNCC3)nc3[nH]ccc23)c1`, for which the pIC50 on BRD4-BD1 (setting [1]) and at JAK2 (Table 6) was 5.00 throughout.
With `CN1CCN(c2ccc(Nc3ncc4ccn(-c5ccc6c(c5)N(S(=O)(=O)C(C)(C)C)CC6)c4n3)cc2)CC1`, the figures for the pIC50 at BRD4-BD1 (setting [1]) and on JAK2 (Table 6) were 5.85 and 7.49, respectively.
As to `CCC1(S(=O)(=O)Nc2cccc(-n3ccc4cnc(Nc5ccc(N6CCC(N(C)C)CC6)cc5)nc43)c2)CC1`, the negative logarithm of the IC50 (pIC50) at BRD4-BD1 (setting [1]) is 5.85; at JAK2 (Table 6) it was 8.33.
On the same counts, the results for `COc1nc(Nc2ccc(N3CCN(C)CC3)cc2)nc2c1ccn2-c1cccc(NS(=O)(=O)C(C)(C)C)c1` are 5.29 and 5.00.
For `CN1CCC(Nc2nc(Nc3ccc(Cl)c(NS(=O)(=O)C(C)(C)C)c3)c3sccc3n2)CC1`, the negative-log IC50 (pIC50) on BRD4-BD1 (setting [1]) was 6.05; at JAK2 (Table 6) it was 5.00.
`Cc1cnc(Nc2ccc(N3CCN(C)CC3)cc2)nc1Nc1cccc(NS(=O)(=O)C(C)(C)C)c1` [drawing 339]: the values for the pIC50 at BRD4-BD1 (setting [1]) and at JAK2 (Table 6) were 6.63 and 7.37, respectively.
On to `CC(C)(C)S(=O)(=O)Nc1cccc(Nc2nc(NC3CCNCC3)nc3sccc23)c1` [drawing 270], for which the negative-log IC50 (pIC50) at BRD4-BD1 (setting [1]) was 6.59; on JAK2 (Table 6) it was 5.00.

The term pIC50 denotes −log10 of the IC50, conventionally taken in molar units.

The values are drawn from US11279703B2, “Fused pyrimidine compounds as BRD4 and JAK2 dual inhibitors and methods for use thereof” (APTOSE BIOSCIENCES INC., priority 2016, dated 2022).
